Laboratory results taken from patent publication US20090325871A1, “Role of the Mk2 Pathway in Wound Repair” (priority 2006, published 2009).
Entries after “also recorded” stand apart in the source; their conditions may differ.

How the values were obtained:
Assay type in all cases: cell-based, mouse
[1] = tested on: MK2−/− MEF; assay: smα-actin protein level by Western blot in MK2−/− MEF; details: TGFβ 1 ng/mL for 24 hours
Experimental: (§1) Aliquots from the cell lysates prepared as described above were assayed for protein using the Bradford protein assay and then diluted with 2× Laemmli loading buffer for SDS-PAGE. Equal amounts of protein were then loaded in each well of 4-20% Tris/glycine gels. After electrophoresis for 90 min at 125 V constant voltage, the gel was blotted onto an Immobilon-P membrane by electrophoretic transfer at 25 V constant voltage overnight. The membrane was then washed, blocked with 5% milk, and probed with antibodies against MK2 (Cell Signaling, Beverly, Mass.) smα (Sigma, St. Louis, Mo.) or pan-actin (Santa Cruz, Santa Cruz, Calif.). The immunoreactive bands were visualized using a secondary antibody conjugated to horseradish peroxidase (Pierce, Rockford, Ill.).and a chemiluminescent substrate according to the manufacturer's instructions (SuperSignal, Pierce, Rockford, Ill.). The intensity of the bands was quantified using a UnScanIt software (Orem, Utah).
(§2) TGFβhas been implicated in the fibrotic response because of its ability to induce differentiation of fibroblasts into myofibroblasts. Whether TGFβ can induce myofibroblast differentiation in both WT MEF and MK2^−/− MEF was tested. Cells were growth arrested in serum free media for 24 hr then exposed to TGFβ (1 ng/mL).

[2] = tested on: SRE promoter; assay: SRE-luciferase promoter-reporter assay in WT MEF; details: TGFβ 1 ng/mL
Experimental: (§3) For SRE promoter-reporter assays WT and MK2^−/− MEF, were transfected with the SRE.L-luciferase vector which contains two copies of SRE.L, a derivative of c-fos serum response element driving the expression of luciferase. The SRE.L vector was introduced alone in the case of WT MEF, and co-transfected with pMEpuro (a selection vector which confers resistance to puromycin to eukaryotic cells) in the case of MK2^−/− MEF. The vectors were introduced (5 μg of SRE.L, and 0.5 μg pMEpuro) into MEF using lipofectamine. Stable transfected WT MEF cell lines were obtained by selection with geneticin, and resistant colonies were isolated, expanded, and then screened for baseline luciferase activity. Since the MK2^−/− MEF were already resistant to geneticin, stable transfectants produced by co-transfection with pMEpuro were selected with puromycin, and resistant clones were isolated and expanded as above. The firefly luciferase activity was assayed using a kit from Promega (Madison, Wis.) according to the manufacturer's instructions. In brief, cells were lysed and the substrate (beetle luciferin) was added to the lysate. Next, chemiluminescence was measured using a luminometer.
Since smα induction by several agents including TGFβ has been reported to occur through activation of serum response elements (SRE) in the smα promoter, whether this activation occurs in WT MEF was tested.

[3] = tested on: SRE promoter; assay: SRE-luciferase promoter-reporter assay in MK2−/− MEF; details: TGFβ 1 ng/mL
Experimental: as §3
Since MK2 has been reported to phosphorylate SRF, whether the effect of MK2 suppression on smα expression is due to its effect on the SRE promoter was tested. […]

[4] = tested on: WT MEF; assay: procollagen type I α1 mRNA level by RT-PCR in WT MEF; details: TGFβ 1 ng/mL for 24 hours
Experimental: (§4) Semiquantitative RT-PCR to measure mRNA in mouse MEF was used. In brief, RNA was isolated from treated or untreated MEF using the RNeasy kit (Qiagen, Valencia, Calif.) according to manufacturesr's instructions. The amount of RNA was determined spectrophotometrically, and equal amounts were used to generate cDNA by reverse transcription using the Superscript III system (Invitrogen, Carlsbad, Calif.) according to manufacturer's instructions. Next an equal volume of the cDNA was added to a master mix containing the following primers. For sma, the primers 5′-GCATCCACGAAACCACCTA-3′ and 5′-[…]-3′ were used to generate a 418 bp PCR product from mouse smooth muscle α-actin cDNA. For β-actin, the primers 5′-[…]-3′ and 5′-[…]-3′) were used to generate 348 bp product from mouseβ-actin cDNA. The primers 5′-[…]-3′ and 5′-[…]3′ were used to generate a 142 bp product from mouse procollagen type I alpha 1 cDNA. The PCR reaction was carried out as using a Bio-Rad I-cycler thermal cycler (Hercules, Calif.). […] After staining with ethidium bromide, photographs of the gels were taken, scanned, and the intensity of the bands was measured using UnScanIt software (Orem, Utah). The relative amount of smα and procollagen RNA was determined by dividing the intensity of their corresponding PCR product band by the intensity of the β-actin PCR product band.

[5] = tested on: MK2−/− MEF; assay: smα mRNA level by semiquantitative RT-PCR in MK2−/− MEF; details: TGFβ 1 ng/mL for 24 hours
Experimental: as §4

[6] = tested on: WT MEF; assay: smα mRNA level by semiquantitative RT-PCR in WT MEF; details: TGFβ 1 ng/mL for 24 hours
Experimental: as §4

[7] = tested on: WT MEF; assay: smα-actin protein level by Western blot in WT MEF; details: TGFβ 1 ng/mL for 24 hours
Experimental: as §1, §2

[8] = tested on: MK2−/− MEF; assay: procollagen type I α1 mRNA level by RT-PCR in MK2−/− MEF; details: TGFβ 1 ng/mL for 24 hours
Experimental: as §4

[9] = greatest after 6 hours, baseline by 24 hours
[10] = SB-203580 1 μM, measured at 6 hours

Compound | smα-actin protein level [1] | SRE-luciferase promoter activity [2, 9] | SRE-luciferase promoter activity [3, 9] | procollagen type I α1 mRNA level [4] | smα mRNA level [5] | smα mRNA level [6] | smα-actin protein level [7] | procollagen type I α1 mRNA level [8] | block of TGFβ activation of SRE-luciferase promoter [2, 10] | block of TGFβ activation of SRE-luciferase promoter [3, 10]
TGFβ | did not respond to TGFβ by increasing smα-actin; also recorded: produce even less smα | SRE promoter activity increased; also recorded: caused activation | SRE promoter activity increased; also recorded: caused activation | did not appear to alter | significantly reduced; also recorded: significantly decreased | increased; also recorded: appeared to increase | smα-actin level increased; also recorded: produce more sma | did not appear to alter; also recorded: did not suppress |  | 
C[S+]([O-])c1ccc(-c2nc(-c3ccncc3)c(-c3ccc(F)cc3)[nH]2)cc1 (stereo not shown) [SB-203580, reference compound] |  |  |  |  |  |  |  |  | partially blocked | completely blocked
